From patent US20240277637A1, “CAPSAICIN DERIVATIVES IN THE TREATMENT OF IDIOPATHIC PULMONARY FIBROSIS” (aXichem AB, priority 2021, published 2024)

Columns and labels:
Assay type in all cases: cell-based
Conditions in all cases: 10 ng/ml PDGF-AB, 14 days
[1] = test system: human corneal epithelial cells; experiment: Clonogenic cell survival assay, corneal epithelial cells with PDGF-AB (Example 1)
Description: Primary isolated human corneal epithelial cells; Normal, Human cells (ATCC® PCS-700-010™) were maintained in culture at 37° C. with 5% CO2 and 95% humidity in serum reduced (5% fetal calf serum) modified promocell media (MPM) supplemented with 4 ng/ml fibronectin (FN), 2 ng/ml human recombinant vascular endothelial growth factor (VEGF) and 4 ng/ml basic fibroblast growth factor (bFGF).
A clonogenic cell survival assay determines the ability of a cell to proliferate indefinitely. The effects of phenylcapsaicin (2) on clonogenic survival of corneal epithelial cells was investigated by plating the cells with increasing numbers (102 to 5×104) in 25 cm^2 flasks. SU9518, a known inhibitor PDGF that has shown the ability to reduce radiation-induced fibroblast and endothelial cell activation, was used as the positive control. The cells were incubated with 0-10 μM of phenylcapsaicin and SU9518 separately in the presence of 10 ng/ml PDGF-AB. The flasks were returned to the incubator for 14 days, after which they were stained with crystal violet. The colonies were counted, and the surviving

[2] = test system: human bronchial epithelial cells; experiment: Clonogenic cell survival assay, bronchial epithelial cells with PDGF-AB (Example 2)
Description: Primary isolated human bronchial epithelial cells (NHBE) (Normal, Human (ATCC® BEAS-2B™)) were cultured up to passage 6. […].
A clonogenic cell survival assay determines the ability of a cell to proliferate indefinitely. The effects of phenylcapsaicin on clonogenic survival of bronchial epithelial cells was investigated by plating the cells with increasing numbers (10^2 to 5×10^4) in 25 cm^2 flasks. SU9518, a known inhibitor for PDGF which has shown the ability to reduce radiation-induced fibroblast and endothelial cell activation, was used as the positive control. The cells were incubated with 0-10 μM of phenylcapsaicin and SU9518 separately in the presence of 10 ng/ml PDGF-AB. The flasks were returned to the incubator for 14 days, after which they were stained with crystal violet. The colonies were counted, and the surviving percentage was determined for clonogenic survival after correcting for plating efficiency.

[3] = test system: human bronchial epithelial cells; experiment: Clonogenic cell survival assay, bronchial epithelial cells with PDGF-AB (Example 3)
Description: (§1) Primary isolated human bronchial epithelial cells (NHBE) were used in this assay sourced from the American Tissue Culture Collection (Normal, Human (ATCC® BEAS-2B™)) and were cultured up to passage 6. […].
A clonogenic cell survival assay determines the ability of a cell to proliferate indefinitely. Cells were plated with increasing numbers (102 to 5×10^4) in 25 cm^2 flasks. SU9518, SU9518, a known inhibitor PDGF that has shown the ability to reduce radiation-induced fibroblast and endothelial cell activation, and phenylcapsaicin were used as positive controls. The cells were incubated with 0-10 μM (3% DMSO aqueous) of phenylcapsaicin, SU9518, and compounds 1 and 3-7 separately in the presence of 10 ng/ml PDGF-AB (Sigma Aldrich). The flasks were returned to the incubator for 14 days, after which they were stained with crystal violet (Sigma Aldrich). The colonies were counted and the surviving percentage was determined for clonogenic survival after correcting for plating efficiency.

[4] = test system: human bronchial epithelial cells; experiment: Clonogenic cell survival assay, bronchial epithelial cells with PDGF-AB (Example 4)
Description: as §1
The effects of Phenylcapsaicin (2) on clonogenic survival of bronchial epithelial cells, by plating the cells with increasing numbers (102 to 5×104) in 25 cm^2 flasks were investigated. SU9518* and Phenylcapsaicin were used as positive controls. The cells were incubated with 0-10 μM (3% DMSO aqueous) of Phenylcapsaicin, SU9518, and compounds 8-12 separately in the presence of 10 ng/ml PDGF-AB (Sigma Aldrich). The flasks were returned to the incubator for 14 days, after which they were stained with crystal violet (Sigma Aldrich). The colonies were counted and the surviving percentage was determined for clonogenic survival after correcting for plating efficiency. The synthetic analogs were all calculated at 100% purity for molar concentrations.

Structure (SMILES): Cc1[nH]c(/C=C2\C(=O)Nc3ccc(Br)cc32)c(C)c1CCC(=O)O [SU9518, reference compound]
- effect on clonogenic survival ([1]; 0-10 μM): dose dependent reduction in cell survival
- surviving fraction of epithelial cells ([1]; 5 μM): 30%
- effect on clonogenic survival ([2]; 0-10 μM): dose dependent reduction in cell survival
- surviving fraction of epithelial cells ([2]; 5 μM): 33%
- Clonogenic Survival Assay (percent) ([3]; 0.10 μM): 80%
- Clonogenic Survival Assay (percent) ([3]; 0.50 μM): 65%
- Clonogenic Survival Assay (percent) ([3]; 1.00 μM): 59%
- Clonogenic Survival Assay (percent) ([3]; 2.00 μM): 41%
- Clonogenic Survival Assay (percent) ([3]; 5.00 μM): 33%
- Clonogenic Survival Assay (percent) ([3]; 10.00 μM): 22%
- Clonogenic Survival Assay (percent) ([4]; 0.10 uM): 80%
- Clonogenic Survival Assay (percent) ([4]; 0.50 uM): 65%
- Clonogenic Survival Assay (percent) ([4]; 1.00 uM): 59%
- Clonogenic Survival Assay (percent) ([4]; 2.00 uM): 41%
- Clonogenic Survival Assay (percent) ([4]; 5.00 uM): 33%
- Clonogenic Survival Assay (percent) ([4]; 10.00 uM): 22%
